We go through six compounds from patent publication US20090048310A1, “AGENT FOR PREVENTION/TREATMENT OF DISEASE CAUSED BY ACYCLOVIR-RESISTANT HERPESVIRUS” (ASTELLAS PHARMA INC., priority 2005, published 2009).

Read-outs that look alike come from different tables or passages of the source.

In assay [1] the test system is ACV-resistant HSV-1. The assay is described as follows: ACV-resistant HSV-1 infection lethal model in nude mice. It is filed as in vivo, nude mouse (CD-1(ICR)-nu/nu). The conditions noted are these: 100 mg/kg oral twice a day for 15 days; for death suppressing effect (in words): 17 days after infection. How it is done: ACV-resistant HSV-1 (3×10^6 pfu) was inoculated into the peritoneal cavity of each nude mouse (CD-1(ICR)-nu/nu, […], female, Charles River Japan) to cause infection with the virus. Each compound to be tested was made into a methyl cellulose suspension and orally administered at a dose of 100 mg/kg, twice a day for 15 days starting 1 hour after the infection (from 0 to 14 days after the infection).
During 17 days after the infection, death of the mice caused by ACV-resistant HSV-1 infection was observed every day, and the number of survived animals was counted.

The test system of assay [2] is ACV-resistant HSV-1 (A4-3^ACV-R strain). The assay is described as follows: Anti-ACV-resistant HSV-1 activity assay (plaque reduction). It is filed as cell-based. How it is done:
A total of from 100,000 to 150,000 cells of an African green monkey kidney cell (Vero cell) were inoculated into a 24 well plate using a growth medium (Eagle MEM (Nissui) supplemented with 10% FBS) and cultured at 37° C. for 3 to 4 days under 5% CO2 until they became a monolayer. After washing the cells with a maintenance medium, ACV-resistant HSV-1 (A4-3^ACV-R strain) which had been diluted with the maintenance medium (Eagle MEM supplemented with 2% FBS) to a viral titer of from 100 to 250 pfu/200 μl was inoculated therein in 200 μl/well portions. The plate was centrifuged at room temperature at 1500 rpm for 40 minutes and then incubated at 37° C. for 1 hour under 5% CO2 for infection with HSV-1. After washing three times with the maintenance medium, 100 μl of each test drug diluted to an appropriate concentration with the maintenance medium was added to each well. After culturing the cells at 37° C. for 3 to 4 days under 5% CO2, 10% formalin/PBS was added thereto in 200 μl/well portions, and the cells were fixed for 2 to 3 hours. The fixing liquid and culture supernatant were discarded and the plate was washed with water, and then staining was carried out for 2 to 3 minutes by adding a staining liquid (0.025% Crystal Violet) in 100 μl/well portions, and the plate was washed with water and dried at 37° C. The Vero cells infected with HSV-1 cause cell death, and plaques consisting of the dead cells are formed in the mono-layered Vero cells.

Assay [3] concerns ACV-resistant VZV (Kanno-Br^ACV-R strain). The assay is described as follows: Anti-ACV-resistant VZV activity assay (plaque reduction). Type of assay: cell-based, varicella zoster virus (VZV). The conditions noted are these: Human alphaherpesvirus 3, HEF, read-out: EC50, concentration which inhibits 50% of the number of plaques (Example 1).
Protocol: This assay was carried out in reference to the method described by Shigeta S. in The Journal of Infectious Diseases, 147, 3, 576-584, (1983). Specifically, 10,000 cells of human embryonic fibroblast (HEF) were inoculated into a 96 well microtiter plate using a growth medium (Eagle MEM (Nissui) supplemented with 10% (v/v) fetal bovine serum (FBS, Sigma)) and cultured at 37° C. for 4 days under 5% CO2 until they became a monolayer. […] The plate was centrifuged at room temperature at 2000 rpm for 20 minutes and then incubated at 37° C. for 3 hours under 5% CO2 for infection with VZV. After washing three times with the maintenance medium 100 μl of each test drug diluted to an appropriate concentration with the maintenance medium was added to each well. After culturing the cells at 37° C. for 3 to 4 days under 5% CO2, 10% formalin/PBS was added thereto in 100 μl/well portions, and the cells were fixed for 2 to 3 hours. The fixing liquid and culture supernatant were discarded and the plate was washed with water, and then staining was carried out for 2 to 3 minutes by adding a staining liquid (0.025% Crystal Violet) in 50 μl/well portions, and the plate was washed with water and dried at 37° C. The HEF cells infected with VZV cause cell death, and plaques consisting of the dead cells are formed in the mono-layered HEF cells.
In assay [4] the test system is HSV-1 strain WT-51. The assay is described as follows: Cutaneous HSV-1 infection mouse model. It is filed as in vivo, HR-1 hairless mouse. The conditions noted are these: oral, 10 mg/kg twice a day for 5 days, scores for 17 days. How it is done:
Using a cutaneous HSV-1 infection mouse model prepared in reference to the method of H. Machida et al. (Antiviral Res., 1992, 17, 133-143), the in vivo […] of the compounds of the present invention was tested using an animal model. The skin of each HR-1 hairless mouse [female, 7 weeks of age] was scratched lengthwise and breadthwise several times using a needle and a virus suspension (HSV-1 strain WT-51, 1.5×10^4 PFU/15 μl) was dropped to the scarified region for infection, while anesthetized with diethyl ether.
Tested compounds were administered orally as a methyl cellulose suspension, except for compounds marked with asterisk which were dissolved in 20% Cremophor EL (Nacalai Tesque)/20% polyethylene glycol (PEG) 400/60% H2O solution, starting at 3 hours after the infection, and then at a dose of 10 mg/kg twice a day for 5 days. The symptom of the skin lesion caused by HSV-1 infection were classified in the following scores for 17 days:
Score 0: no signs of infection.
Score 1: localized, barely perceptible small vesicles.
Score 2: slight vesicle spread.
Score 3: large patches of vesicles formed.
Score 4: zosteriform vesicles.
Score 5: large patches of ulcers formed.
Score 6: zosteriform with severe large ulcers.
Score 7: hind limb paralysis or death.
The AUC value was calculated from each group's mean disease score, and the disease inhibitory rate of the group administered with each test compound to the placebo group was calculated using the AUC.

The mark [5] stands for this setting: Human alphaherpesvirus 1, Vero, read-out: EC50, concentration which inhibits 50% of the number of plaques (Example 2), ACV-resistant HSV-1 A4-3 ACV-R strain in Vero cells.

Consider `Cc1ccc(N(CC(=O)Nc2ccc(-c3cocn3)cc2)C(=O)C2CCS(=O)(=O)CC2)cc1` [Preparation 2, N-(4-methylphenyl)-N-(2-{[4-(1,3-oxazol-4-yl)phenyl]amino}-2-oxoethyl)tetrahydro-2H-thiopyran-4-carboxamide 1,1-dioxide], for which the “death suppressing effect (in words)” value in assay [1] is on record as “completely suppressed death of the mice”. In addition, the “The number of survived animals (n = 10)” value in assay [1] (day 0 after infection), in assay [1] (day 1 after infection), in assay [1] (day 2 after infection), in assay [1] (day 4 after infection), in assay [1] (day 5 after infection) and in assay [1] (day 6 after infection) was 10 each time. Also, the “The number of survived animals (n = 10)” value in assay [1] (day 7 after infection), in assay [1] (day 8 after infection), in assay [1] (day 9 after infection), in assay [1] (day 10 after infection), in assay [1] (day 11 after infection) and in assay [1] (day 12 after infection) was 10 throughout. Moreover, the “The number of survived animals (n = 10)” value in assay [1] (day 14 after infection), in assay [1] (day 16 after infection) and in assay [1] (day 17 after infection) was 10 each time. Further, the values for the EC50 in assay [2] (setting [5]) and in assay [3] were 0.035 µM and 35 nM, respectively.

Turning to `Cc1cccc(C)c1N(CC(=O)Nc1ccc(-c2ncon2)cc1)C(=O)C1CCS(=O)(=O)CC1` [Preparation 27, N-(2,6-dimethylphenyl)-N-(2-{[4-(1,2,4-oxadiazol-3-yl)phenyl]amino}-2-oxoethyl)tetrahydro-2H-thiopyran-4-carboxamide 1,1-dioxide], the “death suppressing effect (in words)” value in assay [1] is listed as “completely suppressed death of the mice”. The “The number of survived animals (n = 10)” value in assay [1] (day 0 after infection), in assay [1] (day 1 after infection), in assay [1] (day 2 after infection), in assay [1] (day 4 after infection), in assay [1] (day 5 after infection) and in assay [1] (day 6 after infection) was 10 in each case. Further, the “The number of survived animals (n = 10)” value in assay [1] (day 7 after infection), in assay [1] (day 8 after infection), in assay [1] (day 9 after infection), in assay [1] (day 10 after infection), in assay [1] (day 11 after infection) and in assay [1] (day 12 after infection) was 10 throughout. Besides, the “The number of survived animals (n = 10)” value in assay [1] (day 14 after infection), in assay [1] (day 16 after infection) and in assay [1] (day 17 after infection) was 10 throughout. Besides, the figures for the EC50 in assay [2] (setting [5]) and in assay [3] were 0.068 µM and 82 nM, respectively.

Regarding `COc1ccc(N(CC(=O)Nc2ccc(-c3csc(N)n3)cc2)C(=O)C2CCC(O)CC2)cc1` (centres unmarked) [Comparative compound C, reference compound], in assay [4] (methyl cellulose suspension), the “Inhibition ratio (%) (disease inhibitory rate vs placebo from AUC of mean disease score)” value (shortened to “Inhibition ratio (%)”) was found to be 44%.

As to `Cc1ccc(N(CC(=O)Nc2ccc(-c3cocn3)cc2)C(=O)C2CCS(=O)(=O)CC2)cc1C` [Preparation 8, N-(3,4-dimethylphenyl)-N-(2-{[4-(1,3-oxazol-4-yl)phenyl]amino}-2-oxoethyl)tetrahydro-2H-thiopyran-4-carboxamide 1,1-dioxide], the “Inhibition ratio (%)” value in assay [4] (methyl cellulose suspension) turned out to be 91%.

Turning to `Nc1nc2c(ncn2COCCO)c(=O)[nH]1` [ACV, acyclovir], the EC50 in assay [2] (setting [5]) turned out to be 68 µM; in assay [2] (read-out: EC50, concentration which inhibits 50% of the number of plaques (Example 2), ACV-resistant HSV-1 A4-3 ACV-R strain in Vero cells), 120 µM.

Take `Cc1cccc(C)c1N(CC(=O)Nc1ccc(-c2cocn2)cc1)C(=O)C1CCS(=O)(=O)CC1` [Preparation 1, N-(2,6-dimethylphenyl)-N-(2-{[4-(1,3-oxazol-4-yl)phenyl]amino}-2-oxoethyl)tetrahydro-2H-thiopyran-4-carboxamide 1,1-dioxide]: the “Inhibition ratio (%)” value in assay [4] (dissolved in 20% Cremophor EL/20% PEG 400/60% H2O (asterisk)) was “* 93%”.
